The values that follow come from patent US20120045483A1, “Mannitol and/or Proline for Prevention and Treatment of Ageing Related Symptoms” (ERASMUS MC, priority 2006, published 2012).

Data set [1] relates to Csb^G744ter/G744ter/Xpa^null/null double mutant mice. The class given is in vivo, mouse. To be noted: for Clearance from the tissues and bloodstream of treated subjects: higher single dose administrations; for Effectiveness of higher single dose administrations: versus low constant source; for Positive results as with mannitol and/or proline: tested under similar conditions. The text has this:
Additionally these animals have an enhanced photoreceptor cell loss. The accumulation of oxidative DNA damage before and immediately after birth presumably negatively influences transcription and causes the premature ageing phenotype.
In order to investigate the effect of radical scavengers on the CSB/XPA double knockout mice, the effect of several compounds and compositions was monitored by the frequency of CSB/XPA DKO mice (closer to the expected mendelian frequency of 25%), an extended life-span (longer than the average three weeks for untreated DKO mice) and a delay or to some extent inhibit the premature ageing phenotype.
To obtain CSB/XPA double mutant mice the following crossing were done:
From these crossings CSB^−/−XPA^−/− mice were born with a frequency of 9%, whereas the expected Mendelian frequency is 25%.
The offspring were genotyped following normal procedures (tail clipping and genomic DNA analysis by Southern blot analysis or PCR amplification) and monitored for life span.

The nature of data set [2]: Serum mannitol concentration in CSB mice with osmotic pump. The following applies: mouse, sc, subcutaneous osmotic pump (200 μl), read-out: Serum [mannitol] after 3 weeks. It is filed as in vivo. Here is the method: The sample is further precipitated using acetonitrile and centrifuged. […] The organic layer is isolated and evaporated to dryness. The residue is dissolved in injection solvent and injected.
21 CSB animals, age 6 months, received an osmotic pump, 7×30 mm (volume 200 μl), subcutaneously implanted under the skin on the back, for continuous release of Phosphate Buffered Saline (control), 0.3M D-Mannitol or 0.03M D-Mannitol dissolved in Phosphate Buffered Saline, 7 animals per compound. To determine the actual D-Mannitol concentration in the blood of these animals, blood samples were taken every 7 days after the implantation of the osmotic pump. After three weeks, eyes were isolated from these animals and TUNEL staining was performed to determine the effect of D-Mannitol on diminishing the age-related photoreceptor-loss in CSB animals, Blood and urine samples were taken for measurements of D-mannitol levels and for determination of biomarkers. In a second experiment, the D-Mannitol treatment via osmotic pumps were repeated, but here on 8 week-old CSB mice were γ-irradiated, in order to see if D-mannitol can reduce the γ-induced photoreceptor-loss observed in CSB mice.

Data set [3] concerns CSB mice. The data set is described as follows: Age-related photoreceptor loss in CSB mice, TUNEL staining of the retina, without radiation. The class given is in vivo, mouse. The following applies: for Apoptotic index without radiation (number of TUNEL-positive cells): osmotic pump, 3 weeks, CSB mice age 6 months. The procedure: (§1) CSB mice have accelerated aging-related photoreceptor loss. […] The photoreceptor loss can also be induced in young adult CSB mice (8-10 weeks) with γ-irradiation (induces a.o. oxidative DNA damage). Since aging-related photoreceptor-loss is at least in part caused by unrepaired oxidative DNA damage, we are able to intervene with anti-oxidant or radical scavenger molecules, in particular with mannitol and/or proline. 21 CSB animals, age 6 months, received an osmotic pump, 7×30 mm (volume 200 μl), subcutaneously implanted under the skin on the back, for continuous release of Phosphate Buffered Saline (control), 0.3M D-Mannitol or 0.03M D-Mannitol dissolved in Phosphate Buffered Saline, 7 animals per compound. To determine the actual D-Mannitol concentration in the blood of these animals, blood samples were taken every 7 days after the implantation of the osmotic pump. After three weeks, eyes were isolated from these animals and TUNEL staining was performed to determine the effect of D-Mannitol on diminishing the age-related photoreceptor-loss in CSB animals, Blood and urine samples were taken for measurements of D-mannitol levels and for determination of biomarkers. In a second experiment, the D-Mannitol treatment via osmotic pumps were repeated, but here on 8 week-old CSB mice were γ-irradiated, in order to see if D-mannitol can reduce the γ-induced photoreceptor-loss observed in CSB mice. For retinal evaluation by TUNEL staining, eyes were marked nasally with Alcian blue (5% Alcian blue in 96% ethanol), enucleated, fixed in 4% paraformaldehyde in 0.1M phosphate buffer, washed in PBS and embedded in paraffin. Horizontal sections (5 μm thick) of the retina were cut and sections in the middle of the retina were selected by Alcian blue marking and proximity of the optic nerve. […] For quantification, the number of TUNEL-positive cells in the inner nuclear layer (INL) and outer nuclear layer (ONL) were counted in 6 whole sections per mouse.

Data set [4] relates to CSB mice. Description: γ-irradiation induced photoreceptor loss in CSB mice, TUNEL staining of the retina. The class given is in vivo, mouse. The following applies: osmotic pump, 8 week-old CSB mice, γ-irradiated. Here is the method: as §1, with “biomarkers.” for “biomarkers. In a second experiment, the D-Mannitol treatment via osmotic pumps were repeated, but here on 8 week-old CSB mice were γ-irradiated, in order to see if D-mannitol can reduce the γ-induced photoreceptor-loss observed in CSB mice. For retinal evaluation by TUNEL staining, eyes were marked nasally with Alcian blue (5% Alcian blue in 96% ethanol), enucleated, fixed in 4% paraformaldehyde in 0.1M phosphate buffer, washed in PBS and embedded in paraffin. Horizontal sections (5 μm thick) of the retina were cut and sections in the middle of the retina were selected by Alcian blue marking and proximity of the optic nerve.”, “mouse. […]” for “mouse.”

A short description of data set [5]: In vitro AOC (anti-oxidant capacity). To be noted: effective concentrations between 0.1 μg/ml and 10 μg/ml as measured in the serum. The text has this: The compositions of the invention may be of any type. […] Mannitol and proline in particular have well documented anti-oxidant properties.
A short description of data set [6]: Transmission of D-Mannitol and L-Proline from mother to pup, osmotic pump in pregnant wild type mice, LC-MS/MS levels. The following applies: osmotic pump 200 μl, 0.3M alone or 0.2M each combined, 28 days, pregnant wild type mice (C57B1/6). Here is the method: The sample is further precipitated using acetonitrile and centrifuged.
(§2) The LLOQ (Lowest Limit of Quantitation) for proline is typically 0.250 μg/ml. […] The sample is further precipitated using acetonitrile and centrifuged. An aliquot of the supernatant is evaporated to dryness under a steam of nitrogen at 60° C., Milli-Q water is added and the preparation is vortexed. Methanol is subsequently added to the preparation and vortexed. Usually Milli-Q water and methanol are added in a ratio of 1/5. The preparation is centrifuged for 2 minutes at a speed of 4000 g or more. The obtained preparation is injected. The apparatus used for LC-MS/MS is API4000 LC-MS/MS.

The conditions of data set [7]: 0.2M L-Proline via drinking water, one week, wt animals. Here is the method: as §2
L-Proline was also measured in the blood and urine of four wt animals that received 0.2M L-Proline via their drinking water. As a control, four wt animals received just drinking water. The duration of this treatment was one week, after which one blood sample and one urine sample was taken.

[8] abbreviates: 5% D-mannitol in PBS, osmotic pump in pregnant females.

Where two headings read alike, the source gives them in different places.

Turning to `OC[C@@H](O)[C@@H](O)[C@H](O)[C@H](O)CO` [Mannitol, hexane-1,2,3,4,5,6-hexyl], in data set [1] (2% D-Mannitol administered to drinking water), the “Frequency of birth and survival after birth of XPA/CSB double KO mice” value is recorded as “Comparable results”. For the same molecule, the “Frequency of birth of XPA/CSB double KO mice” value in data set [1] (setting [8]) was “increase in frequency of birth”. Also, the “Survival after birth (life span) of XPA/CSB double KO mice” value in data set [1] (setting [8]) is listed as “increase in survival after birth”. Further, the “Clearance from the tissues and bloodstream of treated subjects” value in data set [1] is on record as “rapidly cleared”. The “Effectiveness of higher single dose administrations” value in data set [1] is reported as “less or even ineffective”. Moreover, the concentration at 3 weeks amounted to 100 ± 30 ng/mL in data set [2] (0.03 M (200 μl osmotic pump, continuous release), 0.03M D-Mannitol in PBS) and 650 ± 180 ng/mL in data set [2] (0.3 M (200 μl osmotic pump, continuous release), 0.3M D-Mannitol in PBS). Further, the “Apoptotic index without radiation (number of TUNEL-positive cells)” value came out at 24.1 ± 6.8 in the data set on CSB mice [3] (0.03M D-Mannitol) and 24.8 ± 6.0 with CSB mice [3] (0.3M D-Mannitol). For the same molecule, the “Change of the apoptotic index (photoreceptor loss)” value in the data set with CSB mice [3] (endogenous or exogenous (radiation induced) oxidative stress, CSB mice) was “significant decrease”. Further, the “Apoptotic index after radiation (number of TUNEL-positive cells)” value in the data set with CSB mice [4] (0.03M D-Mannitol) was 29.5 ± 6.0; in the data set on CSB mice [4] (0.3M D-Mannitol), 28.9 ± 11.3. Further, the “AOC (anti-oxidant capacity) in vitro” value in data set [5] is on record as “no or negligible”.

With `O=C(O)[C@@H]1CCCN1` [proline, L-Proline], in data set [1], the “Clearance from the tissues and bloodstream of treated subjects” value is “rapidly cleared”; the “Effectiveness of higher single dose administrations” value is “less or even ineffective”. The “Frequency of survival of DKO pups after birth” value in data set [1] (proline treatment) is “equally effective in increasing the frequency of survival”. Further, the “Elevated levels in blood of mothers and pups, in milk or in whole embryo's” value in data set [6] is listed as “not detected”. Besides, in data set [7], the “L-Proline levels in the blood” value is on record as “no elevated levels” and the “L-Proline levels in the urine” value is “High levels”. Further, the “AOC (anti-oxidant capacity) in vitro” value in data set [5] is on record as “no or negligible”.

As to `O=C1O[C@H]([C@@H](O)CO)C(O)=C1O` [vitamin C], in data set [1], the “Positive results as with mannitol and/or proline” value is recorded as “did not yield the positive results”.

Consider vitamin E, for which the “Positive results as with mannitol and/or proline” value in data set [1] is reported as “did not yield the positive results”.
